{"source": "paper PMC12524402", "about": "“Cobalt(II) Complexes of 4′-Bromo-Fenamic Acid: Antioxidant Properties, Antibacterial Activity, and Interaction with DNA and Albumins” (International Journal of Molecular Sciences, 2025)", "key": {"[1]": {"molecular_target": "T1, BSA (bovine serum albumin) (Bos taurus, UniProt P02769)", "T1 construct": "gene ALB; commercial native serum albumin (Sigma-Aldrich), mature secreted protein, catalogue number not given", "T1 sequence (P02769 25-607)": "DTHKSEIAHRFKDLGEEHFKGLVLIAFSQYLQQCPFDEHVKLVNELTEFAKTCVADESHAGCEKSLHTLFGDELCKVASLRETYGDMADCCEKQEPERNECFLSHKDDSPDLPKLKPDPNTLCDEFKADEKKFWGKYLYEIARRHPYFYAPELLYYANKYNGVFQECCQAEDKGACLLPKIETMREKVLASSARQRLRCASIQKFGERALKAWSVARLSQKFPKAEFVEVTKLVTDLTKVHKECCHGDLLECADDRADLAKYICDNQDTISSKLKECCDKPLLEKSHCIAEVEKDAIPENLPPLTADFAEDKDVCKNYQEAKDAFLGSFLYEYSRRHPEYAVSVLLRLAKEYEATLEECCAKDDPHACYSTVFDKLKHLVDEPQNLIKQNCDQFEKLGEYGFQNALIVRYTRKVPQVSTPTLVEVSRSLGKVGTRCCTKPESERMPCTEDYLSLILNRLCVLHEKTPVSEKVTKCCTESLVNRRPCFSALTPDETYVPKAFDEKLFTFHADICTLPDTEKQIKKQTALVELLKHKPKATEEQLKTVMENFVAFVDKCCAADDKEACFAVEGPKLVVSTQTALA", "test": "tryptophan fluorescence quenching (excitation […] nm), Scatchard plot", "assay_type": "binding", "settings": "read-out: K(BSA) (converted)"}, "[2]": {"molecular_target": "T2, HSA (human serum albumin) (Homo sapiens, UniProt P02768)", "T2 construct": "gene ALB; commercial serum albumin (Sigma-Aldrich), mature secreted protein, catalogue number not given", "T2 sequence (P02768 25-609)": "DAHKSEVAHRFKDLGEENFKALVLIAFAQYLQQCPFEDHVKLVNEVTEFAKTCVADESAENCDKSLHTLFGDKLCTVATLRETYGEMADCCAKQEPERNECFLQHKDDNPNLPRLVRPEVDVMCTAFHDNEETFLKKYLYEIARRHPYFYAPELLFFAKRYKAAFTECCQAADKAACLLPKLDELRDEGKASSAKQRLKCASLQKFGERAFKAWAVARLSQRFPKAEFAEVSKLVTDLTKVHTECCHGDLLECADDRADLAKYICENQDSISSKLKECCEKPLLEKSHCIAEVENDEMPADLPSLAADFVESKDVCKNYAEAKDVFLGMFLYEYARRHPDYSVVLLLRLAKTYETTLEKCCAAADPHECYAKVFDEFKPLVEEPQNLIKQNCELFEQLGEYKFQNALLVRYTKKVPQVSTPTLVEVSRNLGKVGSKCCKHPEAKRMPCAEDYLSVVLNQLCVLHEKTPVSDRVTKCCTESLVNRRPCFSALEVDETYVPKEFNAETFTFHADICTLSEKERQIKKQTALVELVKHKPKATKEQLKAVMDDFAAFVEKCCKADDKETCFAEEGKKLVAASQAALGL", "test": "tryptophan fluorescence quenching (excitation […] nm), Scatchard plot", "assay_type": "binding", "settings": "read-out: K(HSA) (converted)"}}}
{"smiles": "O=C(O)c1ccccc1Nc1ccc(Br)cc1", "note": "[4′-Br-fenH]", "values": [{"measurement": "Kd", "setting": "[1]", "result": 3.68, "unit": "µM"}, {"measurement": "Kd", "setting": "[2]", "result": 3.7, "unit": "µM"}]}
